In data set [1] the test system is protein translation in P. falciparum (Cam3.II-rev) schizonts. Kind of data set: Protein translation assay (O-propargyl-puromycin incorporation). The data set is classed as cell-based, Plasmodium falciparum. Conditions: Plasmodium falciparum, 3 h, read-out: IC50 (Translation), schizont stage Cam3.II-rev, 3 h exposure, OPP incorporation. The procedure:
723 then fixed for 10 minutes (4% formaldehyde/0.02% glutaraldehyde in PBS). The click reaction was
724 performed for 1 h in the presence of CuSO4 (0.1 mM), THPTA (0.5 mM) and sodium ascorbate (5 mM) to
725 bring about azide-alkyne cycloaddition to Alexa Fluor 488 azide (0.1 µM). Flow cytometry was performed
726 using the FITC and Cy™5.5 channels to detect the Alexa Fluor 488 and PI, respectively.
729 Cam 3.II_Rev (25) trophozoite-infected RBCs (25-30 h p.i.) were incubated with inhibitor for 3 h at 10%
730 hematocrit and 5% parasitemia. The RBC pellet was washed 3 x in PBS + cOmplete. Cells were centrifuged
731 at 380 x g for 5 min and the pelleted cells lysed by resuspension in PBS + 0.05% saponin for 5 min on ice.

In another data set the test system is HCT116. Kind of data set: HCT116 cell viability (ATP content). The class given is cell-based. Conditions: Homo sapiens, HCT-116, 72 h, read-out: HCT116 IC50(72h). The procedure:
574 H1650 is a human lung cancer derived ATG7-null cell line (49) that can be used to assess effects on targets
576 adenocarcinoma; bronchoalveolar carcinoma). Other cells lines used are: H460 (NCI-H460; human lung;
577 carcinoma; large cell lung cancer; ATCC: HTB-177); and HCT116 (human colon; colorectal carcinoma;
578 ATCC: CCL-247; Lot : 5056139). Each of the cell lines was received from the American Type Culture
579 Collection (ATCC) and passaged twice before freezing. Cells were cultured in the presence or absence of
580 inhibitors and cell viability was assessed by comparing the ATP content in compound-treated wells with
581 that in DMSO-treated wells as previously described (11). […]
585 37°C humidified incubator as adherent semi-confluent monolayers in complete Dulbecco’s Modified Eagle
586 Media (c-DMEM). DMEM (Gibco™, Thermo Fisher Scientific, Australia) was supplemented with 10%

Another data set deals with human Atg7 (Homo sapiens, UniProt O95352). Kind of data set: E1-E2 transthiolation HTRF assay, ATG7 (RH-GABARAP). The class given is biochemical. An excerpt:
(§1) 592 E1-E2 Transthiolation Assays
(§2) 593 An Homogeneous Time-Resolved Fluorescence (HTRF) enzyme assay was employed to evaluate
(§3) 594 compound activity against ATG7 as previously described (11). In this assay, a Flag-tagged ATG8 homolog
(§4) 595 (GABA type A receptor-associated protein; GABARAP) is activated by ATG7 and then transthiolated to a
(§5) 596 GST-tagged E2 (ATG3). The product of the enzyme reaction, Flag-GABARAP-ATG3-GST, is quantified
(§6) 597 by measuring FRET between Europium-Cryptate labelled monoclonal anti-Flag M2 (CisBio International,
598 Cat# 61FG2KLB) and PHYCOLINK goat anti-GST allophycocyanin (Prozyme, PJ252p1). […]
606 Compounds were incubated with mature stage V gametocytes ([…], kind gift from Professor Chris Janse
607 at Leiden University Medical Center (LUMC), the Netherlands) for 48 hours in 384 well plates before
608 gamete formation was triggered by a drop in temperature and addition of xanthurenic acid. […]
611 Multiple data sets using different gametocyte cultures were collected on each of two separate days.
613 Activity against exoerythrocytic stages
614 Primary human hepatocytes (H1500.H15B+ Lot No. HC10-10 Cryopreserved human hepatocytes)
615 were cultured for 2 days and then overlaid with P. falciparum NF54 sporozoites and compounds.
616 Supernatant was refreshed daily with fresh compounds.
On the technique in general: TR-FRET usually uses a lanthanide donor and a delayed reading to cut background.

Data set [2] concerns P. falciparum Pf3D70087/N9. Kind of data set: Therapeutic efficacy in SCID mouse P. falciparum model. The class given is in vivo, Plasmodium falciparum. Conditions: single dose 50 mg/kg i.p.
Description: 589 by genomic sequencing and were routinely tested for mycoplasma contamination using MycoAlert™
590 Mycoplasma Detection Kit (Lonza, Capsugel Australia).
as §1, §2, §3, §4, §5, §6
598 Cat# 61FG2KLB) and PHYCOLINK goat anti-GST allophycocyanin (Prozyme, PJ252p1). The activation
599 and transthiolation of ubiquitin by Ubiquitin Activating Enzyme, activation and transthiolation of NEDD8 […]
605 Activity against male gametes was assessed using the dual gamete formation assay (PfDGFA)(32). […]
609 exflagellation was recorded and quantified by automated microscopy. […]
610 express Pfs25 on their surface after 24 h at 28°C was assessed by single-image fluorescence microscopy. […]
624 falciparum (Pf3D70087/N9) on day 0. The antimalarial efficacy was assessed following administration (i.p.) […]
638 precipitated with acetonitrile and the remaining compound was assessed by LC-MS/MS in the selected reaction […]

Sequence of human Atg7 (O95352 whole entry): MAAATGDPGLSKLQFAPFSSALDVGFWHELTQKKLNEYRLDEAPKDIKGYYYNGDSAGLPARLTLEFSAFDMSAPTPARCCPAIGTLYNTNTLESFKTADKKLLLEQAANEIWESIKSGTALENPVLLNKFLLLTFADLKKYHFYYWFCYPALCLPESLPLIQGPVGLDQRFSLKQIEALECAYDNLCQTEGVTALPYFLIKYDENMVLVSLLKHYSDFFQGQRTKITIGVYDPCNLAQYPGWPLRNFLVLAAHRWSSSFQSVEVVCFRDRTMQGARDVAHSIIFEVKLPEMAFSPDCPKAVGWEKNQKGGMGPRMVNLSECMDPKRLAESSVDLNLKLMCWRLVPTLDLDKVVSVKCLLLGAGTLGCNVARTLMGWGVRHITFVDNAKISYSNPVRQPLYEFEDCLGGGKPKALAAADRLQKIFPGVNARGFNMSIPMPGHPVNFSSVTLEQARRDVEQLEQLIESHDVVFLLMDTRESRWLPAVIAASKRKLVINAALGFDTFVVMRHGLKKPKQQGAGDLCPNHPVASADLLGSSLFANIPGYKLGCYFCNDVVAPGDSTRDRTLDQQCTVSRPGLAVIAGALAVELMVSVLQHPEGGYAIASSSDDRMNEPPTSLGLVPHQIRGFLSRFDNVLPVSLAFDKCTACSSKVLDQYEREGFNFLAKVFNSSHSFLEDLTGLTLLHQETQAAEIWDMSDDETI

Consider `Nc1ncnc2c1c(OC(F)F)nn2[C@@H]1O[C@H](COS(N)(=O)=O)[C@@H](O)[C@H]1O` [ML901], for which the IC50 in data set [1] was 65 nM; with HCT116, 2280 nM; against human Atg7 it was 33 nM. Besides, the effect on parasitemia entry in data set [2] (SCID mice engrafted with P. falciparum infected human RBCs) is given as “reduction of parasitemia to baseline”. Moreover, the toxicity entry in data set [2] (SCID mice) was “no evidence of toxicity”.

The record behind these values is publication PMC7613620, “Reaction hijacking of tyrosine tRNA synthetase as a whole-of-life-cycle antimalarial strategy” (Science (New York, N.Y.), 2022).
